# Where two headings read alike, the source gives them in different places.
# Assays:
# [1] = test system: MDA-MB-231 (breast, adenocarcinoma) cells; experiment: Cell viability assay, CellTiter-Glo (Example 21); assay type: cell-based, human; details: 72 h treatment
# Experimental: (§1) Effect of the selected compounds on cancer cell viability was measured via CellTiter-Glo® luminescent cell viability assay (Promega, Madison, WI, USA) according to the manufacturer's instructions. Cells were plated onto a flat-bottomed, white 96 well plate (BRANDplates®, cat. no.: 781965). Density of the seeded cells was optimized based on their size and growth rate, as the follows: Panc-1:750 cells/well; DU 145, PC-3, Capan-1, MIA PaCa-2, SCC-25, FaDu and EBC-1: 1000 cells/well; LNCaP, Detroit 562, MDA-MB-231 and MDA-MB-453 1500 cells/well. […] After the treatment, the luminescence signal was recorded using a microplate reader (BioTek Synergy 2 Multi-Mode Reader, BioTek, Winooski, VT, USA). Dose-response curves were generated by GraphPad Prism 8.4.2. software using a non-linear regression model (variable slope, four parameters), (see FIGS. 12-51).
# [2] = test system: FaDu (pharynx, squamous cell carcinoma) cells; experiment: Cell viability assay, CellTiter-Glo (Example 21); assay type: cell-based, human; details: 72 h treatment
# Experimental: as §1
# [3] = test system: MIA PaCa-2 (pancreas, carcinoma) cells; experiment: Cell viability assay, CellTiter-Glo (Example 21); assay type: cell-based, human; details: 72 h treatment
# Experimental: as §1
# [4] = test system: LNCaP (prostate, carcinoma) cells; experiment: Cell viability assay, CellTiter-Glo (Example 21); assay type: cell-based, human; details: 72 h
# Experimental: as §1
# [5] = test system: SCC-25 (tongue, squamous cell carcinoma) cells; experiment: Cell viability assay, CellTiter-Glo (Example 21); assay type: cell-based, human; details: 72 h treatment
# Experimental: as §1
# [6] = test system: Capan-1 (pancreas, adenocarcinoma) cells; experiment: Cell viability assay, CellTiter-Glo (Example 21); assay type: cell-based, human; details: 72 h treatment
# Experimental: as §1
# [7] = test system: DU 145 (prostate, carcinoma) cells; experiment: Cell viability assay, CellTiter-Glo (Example 21); assay type: cell-based, human; details: 72 h
# Experimental: as §1
# [8] = test system: PC-3 (prostate, adenocarcinoma) cells; experiment: Cell viability assay, CellTiter-Glo (Example 21); assay type: cell-based, human; details: 72 h treatment
# Experimental: as §1
# [9] = test system: EBC-1 (lung, squamous cell carcinoma) cells; experiment: Cell viability assay, CellTiter-Glo (Example 21); assay type: cell-based, human; details: 72 h treatment
# Experimental: as §1
# [10] = test system: MDA-MB-453 (breast, carcinoma) cells; experiment: Cell viability assay, CellTiter-Glo (Example 21); assay type: cell-based, human; details: 72 h treatment
# Experimental: as §1
# [11] = test system: Detroit 562 (pharynx, carcinoma) cells; experiment: Cell viability assay, CellTiter-Glo (Example 21); assay type: cell-based, human; details: 72 h treatment
# Experimental: as §1
# [12] = test system: Panc-1 (pancreas, carcinoma) cells; experiment: Cell viability assay, CellTiter-Glo (Example 21); assay type: cell-based, human; details: 72 h treatment
# Experimental: as §1
# [13] = test system: Panc-1 human cell line; experiment: Cytotoxicity on Panc-1, xCELLigence SP, IC50 after 24 h, 48 h, 72 h and 96 h (Example 22)
smiles,measurement,setting,value
[N-]=[N+]=Nc1cccc(CN2CCC3=C(C2)C(=O)N(Cc2ccc(Cl)cc2)C2=NCCN23)c1 [I/133],"MDA-MB-231 (breast, adenocarcinoma) cell viability (% of control)",[1]; 3.7 nM,101.4 ± 2.0 % of control
same,"MDA-MB-231 (breast, adenocarcinoma) cell viability (% of control)",[1]; 11.1 nM,100.4 ± 2.9 % of control
same,"MDA-MB-231 (breast, adenocarcinoma) cell viability (% of control)",[1]; 100 nM,58.2 ± 2.5 % of control
same,"MDA-MB-231 (breast, adenocarcinoma) cell viability (% of control)",[1]; 300 nM,56.4 ± 3.5 % of control
same,"FaDu (pharynx, squamous cell carcinoma) cell viability (% of control)",[2]; 3.7 nM,100.0 ± 6.2 % of control
same,"FaDu (pharynx, squamous cell carcinoma) cell viability (% of control)",[2]; 11.1 nM,70.7 ± 13.1 % of control
same,"FaDu (pharynx, squamous cell carcinoma) cell viability (% of control)",[2]; 100 nM,25.3 ± 6.4 % of control
same,"FaDu (pharynx, squamous cell carcinoma) cell viability (% of control)",[2]; 300 nM,24.6 ± 6.8 % of control
same,"MIA PaCa-2 (pancreas, carcinoma) cell viability (% of control)",[3]; 3.7 nM,104.0 ± 17.3 % of control
same,"MIA PaCa-2 (pancreas, carcinoma) cell viability (% of control)",[3]; 11.1 nM,92.1 ± 13.2 % of control
same,"MIA PaCa-2 (pancreas, carcinoma) cell viability (% of control)",[3]; 100 nM,18.4 ± 7.8 % of control
same,"MIA PaCa-2 (pancreas, carcinoma) cell viability (% of control)",[3]; 300 nM,17.4 ± 7.9 % of control
same,LNCaP cell viability,[4]; 3.7 nM,95.9 ± 6.1 % of control
same,LNCaP cell viability,[4]; 11.1 nM,33.4 ± 3.1 % of control
same,LNCaP cell viability,[4]; 100 nM,12.3 ± 1.1 % of control
same,LNCaP cell viability,[4]; 300 nM,13.3 ± 1.2 % of control
same,"SCC-25 (tongue, squamous cell carcinoma) cell viability (% of control)",[5]; 3.7 nM,102.3 ± 4.2 % of control
same,"SCC-25 (tongue, squamous cell carcinoma) cell viability (% of control)",[5]; 11.1 nM,72.9 ± 3.0 % of control
same,"SCC-25 (tongue, squamous cell carcinoma) cell viability (% of control)",[5]; 100 nM,34.7 ± 4.9 % of control
same,"SCC-25 (tongue, squamous cell carcinoma) cell viability (% of control)",[5]; 300 nM,40.9 ± 3.7 % of control
same,"Capan-1 (pancreas, adenocarcinoma) cell viability (% of control)",[6]; 3.7 nM,108.3 ± 8.3 % of control
same,"Capan-1 (pancreas, adenocarcinoma) cell viability (% of control)",[6]; 11.1 nM,98.8 ± 7.9 % of control
same,"Capan-1 (pancreas, adenocarcinoma) cell viability (% of control)",[6]; 100 nM,32.6 ± 4.0 % of control
same,"Capan-1 (pancreas, adenocarcinoma) cell viability (% of control)",[6]; 300 nM,34.0 ± 2.8 % of control
same,DU 145 cell viability,[7]; 3.7 nM,98.8 ± 6.7 % of control
same,DU 145 cell viability,[7]; 11.1 nM,45.7 ± 4.4 % of control
same,DU 145 cell viability,[7]; 100 nM,8.0 ± 2.0 % of control
same,DU 145 cell viability,[7]; 300 nM,8.1 ± 2.6 % of control
same,"PC-3 (prostate, adenocarcinoma) cell viability (% of control)",[8]; 3.7 nM,105.6 ± 1.8 % of control
same,"PC-3 (prostate, adenocarcinoma) cell viability (% of control)",[8]; 11.1 nM,83.5 ± 6.4 % of control
same,"PC-3 (prostate, adenocarcinoma) cell viability (% of control)",[8]; 100 nM,32.6 ± 3.3 % of control
same,"PC-3 (prostate, adenocarcinoma) cell viability (% of control)",[8]; 300 nM,32.9 ± 4.6 % of control
same,"EBC-1 (lung, squamous cell carcinoma) cell viability (% of control)",[9]; 3.7 nM,97.1 ± 6.0 % of control
same,"EBC-1 (lung, squamous cell carcinoma) cell viability (% of control)",[9]; 11.1 nM,60.1 ± 6.7 % of control
same,"EBC-1 (lung, squamous cell carcinoma) cell viability (% of control)",[9]; 100 nM,23.2 ± 0.7 % of control
same,"EBC-1 (lung, squamous cell carcinoma) cell viability (% of control)",[9]; 300 nM,22.2 ± 1.3 % of control
same,"MDA-MB-453 (breast, carcinoma) cell viability (% of control)",[10]; 3.7 nM,108.6 ± 19.7 % of control
same,"MDA-MB-453 (breast, carcinoma) cell viability (% of control)",[10]; 11.1 nM,50.1 ± 10.6 % of control
same,"MDA-MB-453 (breast, carcinoma) cell viability (% of control)",[10]; 100 nM,31.9 ± 1.3 % of control
same,"MDA-MB-453 (breast, carcinoma) cell viability (% of control)",[10]; 300 nM,31.7 ± 0.5 % of control
same,"Detroit 562 (pharynx, carcinoma) cell viability (% of control)",[11]; 3.7 nM,47.1 ± 16.0 % of control
same,"Detroit 562 (pharynx, carcinoma) cell viability (% of control)",[11]; 11.1 nM,31.1 ± 6.5 % of control
same,"Detroit 562 (pharynx, carcinoma) cell viability (% of control)",[11]; 100 nM,28.8 ± 3.6 % of control
same,"Detroit 562 (pharynx, carcinoma) cell viability (% of control)",[11]; 300 nM,31.3 ± 4.1 % of control
same,"Panc-1 (pancreas, carcinoma) cell viability (% of control)",[12]; 3.7 nM,108.9 ± 10.2 % of control
same,"Panc-1 (pancreas, carcinoma) cell viability (% of control)",[12]; 11.1 nM,94.1 ± 4.0 % of control
same,"Panc-1 (pancreas, carcinoma) cell viability (% of control)",[12]; 100 nM,56.1 ± 3.7 % of control
same,"Panc-1 (pancreas, carcinoma) cell viability (% of control)",[12]; 300 nM,55.7 ± 2.5 % of control
same,IC50,"[13]; PANC-1, 72 h, read-out: IC50 (72 h) [nM]",9.05 ± 0.669 nM
same,IC50,"[13]; PANC-1, 96 h, read-out: IC50 (96 h) [nM]",4.73 ± 0.109 nM

# From patent US20230295162A1 (EÖTVÖS LORÁND TUDOMÁNYEGYETEM, priority 2020, published 2023)
